{"source": "ChEMBL document CHEMBL6074641", "about": "“Polypharmacological Drug Design Guided by Integrating Phenotypic and Restricted Fragment Docking Strategies” (J Med Chem, 2024)", "key": {"[1]": {"tested_on": "Microglia", "assay": "Anti-necroptosis activity in LPS/zVAD stimulated mouse primary microglia overexpressed with RIPK1 assessed as reversal of translucent cytoplasm by TEM analysis", "type": "functional, cell-based"}, "[2]": {"tested_on": "Microglia", "assay": "Anti-necroptosis activity in LPS/zVAD stimulated mouse primary microglia overexpressed with MAP4K4 assessed as reversal of mitochondrial swelling by TEM analysis", "type": "functional, cell-based"}, "[3]": {"tested_on": "Mus musculus", "assay": "Anti-alzheimer activity against 8 month old 3xTg mouse model assessed as increase in searching frequency towards annulus at 10 mg/kg, po administered 4 times per week for 4 weeks", "type": "functional, organism-based"}, "[4]": {"tested_on": "Mus musculus", "assay": "Anti-alzheimer activity in 8 month old 3xTg mouse model assessed as reversal of transcriptomic changes in Hba-a1 at 10 mg/kg, po", "type": "functional, organism-based"}, "[5]": {"tested_on": "BV-2", "assay": "Anti-necroptosis activity in mouse BV-2 cells assessed as reduction in p65 expression at 100 nM by confocal microscopic analysis", "type": "functional, cell-based"}, "[6]": {"assay": "AUC(0 to t) in C57BL/6 mouse plasma at 10 mg/kg, po measured upto 24 hrs by LC-MS/MS analysis", "type": "ADME, organism-based"}, "[7]": {"tested_on": "BV-2", "assay": "Cytotoxicity against mouse BV-2 cells at 10 uM", "type": "toxicity, cell-based", "settings": "bv-2, 10 µM"}, "[8]": {"tested_on": "Mus musculus", "assay": "Anti-alzheimer activity against 8 month old 3xTg mouse model assessed as decrease in anxiety level at 2 to 10 mg/kg, po administered 4 times per week for 4 weeks", "type": "functional, organism-based", "settings": "dose 2-10 mg/kg"}, "[9]": {"tested_on": "Microglia", "assay": "Anti-necroptosis activity in LPS/zVAD stimulated mouse primary microglia overexpressed with RIPK1 assessed as reversal of severe membrane disruption by TEM analysis", "type": "functional, cell-based"}, "[10]": {"tested_on": "BV-2", "assay": "Inhibition of MLKL activation in mouse BV-2 cells by Western blotting analysis", "type": "cell-based", "settings": "dose 4-100 nM"}, "[11]": {"molecular_target": "Cytochrome P450 3A4 (Homo sapiens, UniProt P08684)", "sequence (P08684 whole entry)": "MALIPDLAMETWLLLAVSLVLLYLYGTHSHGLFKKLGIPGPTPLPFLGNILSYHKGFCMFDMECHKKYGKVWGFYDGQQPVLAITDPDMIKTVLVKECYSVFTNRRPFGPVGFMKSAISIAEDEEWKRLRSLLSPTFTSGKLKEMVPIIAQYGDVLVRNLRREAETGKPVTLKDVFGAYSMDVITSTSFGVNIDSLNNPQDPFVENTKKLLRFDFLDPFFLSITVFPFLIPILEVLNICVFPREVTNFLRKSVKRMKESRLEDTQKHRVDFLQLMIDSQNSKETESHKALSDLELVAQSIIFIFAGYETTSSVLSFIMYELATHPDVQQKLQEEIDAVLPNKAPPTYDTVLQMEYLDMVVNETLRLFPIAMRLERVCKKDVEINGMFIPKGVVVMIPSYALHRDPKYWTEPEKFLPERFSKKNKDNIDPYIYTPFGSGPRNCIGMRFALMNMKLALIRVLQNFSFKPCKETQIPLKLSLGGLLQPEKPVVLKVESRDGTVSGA", "assay": "Inhibition of CYP3A4 (unknown origin) using midazolam as substrate incubated for 10 mins in presence of NADPH by LC-MS/MS analysis", "type": "ADME"}, "[12]": {"assay": "Half-life in C57BL/6 mouse brain at 10 mg/kg, po measured upto 24 hrs by LC-MS/MS analysis", "type": "ADME, organism-based"}, "[13]": {"tested_on": "Mus musculus", "assay": "Anti-alzheimer activity in 8 month old 3xTg mouse model assessed as reversal of transcriptomic changes in Pttg1 at 10 mg/kg, po", "type": "functional, organism-based"}, "[14]": {"tested_on": "Mus musculus", "assay": "Anti-necroptosis activity in 3xTg mouse hippocampus assessed as reduction in Iba activation at 2 to 10 mg/kg, po", "type": "functional, organism-based", "settings": "dose 2-10 mg/kg"}, "[15]": {"molecular_target": "Mitogen-activated protein kinase kinase kinase kinase 4 (Homo sapiens, UniProt O95819)", "sequence (O95819 whole entry, the tested form may be a part)": "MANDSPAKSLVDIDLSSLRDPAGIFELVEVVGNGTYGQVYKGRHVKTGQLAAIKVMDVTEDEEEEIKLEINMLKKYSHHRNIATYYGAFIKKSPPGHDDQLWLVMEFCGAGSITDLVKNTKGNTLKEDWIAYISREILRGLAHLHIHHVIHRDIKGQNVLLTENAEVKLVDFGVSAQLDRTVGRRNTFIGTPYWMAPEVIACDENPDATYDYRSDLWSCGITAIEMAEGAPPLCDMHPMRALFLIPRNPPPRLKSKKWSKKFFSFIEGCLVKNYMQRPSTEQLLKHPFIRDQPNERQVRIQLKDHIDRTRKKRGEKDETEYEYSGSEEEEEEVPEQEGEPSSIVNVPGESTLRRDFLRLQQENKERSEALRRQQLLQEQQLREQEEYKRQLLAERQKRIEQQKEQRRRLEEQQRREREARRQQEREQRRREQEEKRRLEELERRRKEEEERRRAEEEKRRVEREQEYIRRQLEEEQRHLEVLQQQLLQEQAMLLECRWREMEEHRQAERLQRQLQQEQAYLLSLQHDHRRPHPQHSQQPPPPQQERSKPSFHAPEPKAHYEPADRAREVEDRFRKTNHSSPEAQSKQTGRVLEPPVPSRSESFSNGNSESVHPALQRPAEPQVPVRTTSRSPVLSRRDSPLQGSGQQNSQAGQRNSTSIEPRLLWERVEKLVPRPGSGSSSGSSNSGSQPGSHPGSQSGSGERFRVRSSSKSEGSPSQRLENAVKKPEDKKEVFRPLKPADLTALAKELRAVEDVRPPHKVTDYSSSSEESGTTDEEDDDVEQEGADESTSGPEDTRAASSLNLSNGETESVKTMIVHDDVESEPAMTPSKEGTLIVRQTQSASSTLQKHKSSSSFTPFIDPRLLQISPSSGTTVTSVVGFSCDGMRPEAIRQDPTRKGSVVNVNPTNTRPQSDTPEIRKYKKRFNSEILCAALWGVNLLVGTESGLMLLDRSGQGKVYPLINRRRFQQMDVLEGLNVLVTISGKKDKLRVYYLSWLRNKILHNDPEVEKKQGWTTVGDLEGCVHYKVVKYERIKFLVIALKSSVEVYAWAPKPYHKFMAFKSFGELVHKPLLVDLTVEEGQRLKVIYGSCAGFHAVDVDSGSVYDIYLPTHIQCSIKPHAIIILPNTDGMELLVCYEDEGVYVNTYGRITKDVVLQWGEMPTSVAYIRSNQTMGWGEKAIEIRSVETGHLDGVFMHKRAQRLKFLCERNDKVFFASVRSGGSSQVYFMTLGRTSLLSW", "assay": "Inhibition of recombinant MAP4K4 (1 to 328 residues) (unknown origin) expressed in Escherichia coli BL21([…]) using MBP as substrate preincubated for 15 mins followed by substrate and ATP addition and measured after 90 mins by ADP-Glo luminescence […] assay"}, "[16]": {"molecular_target": "ALK tyrosine kinase receptor (Mus musculus) (UniProt P97793)", "sequence (P97793 whole entry)": "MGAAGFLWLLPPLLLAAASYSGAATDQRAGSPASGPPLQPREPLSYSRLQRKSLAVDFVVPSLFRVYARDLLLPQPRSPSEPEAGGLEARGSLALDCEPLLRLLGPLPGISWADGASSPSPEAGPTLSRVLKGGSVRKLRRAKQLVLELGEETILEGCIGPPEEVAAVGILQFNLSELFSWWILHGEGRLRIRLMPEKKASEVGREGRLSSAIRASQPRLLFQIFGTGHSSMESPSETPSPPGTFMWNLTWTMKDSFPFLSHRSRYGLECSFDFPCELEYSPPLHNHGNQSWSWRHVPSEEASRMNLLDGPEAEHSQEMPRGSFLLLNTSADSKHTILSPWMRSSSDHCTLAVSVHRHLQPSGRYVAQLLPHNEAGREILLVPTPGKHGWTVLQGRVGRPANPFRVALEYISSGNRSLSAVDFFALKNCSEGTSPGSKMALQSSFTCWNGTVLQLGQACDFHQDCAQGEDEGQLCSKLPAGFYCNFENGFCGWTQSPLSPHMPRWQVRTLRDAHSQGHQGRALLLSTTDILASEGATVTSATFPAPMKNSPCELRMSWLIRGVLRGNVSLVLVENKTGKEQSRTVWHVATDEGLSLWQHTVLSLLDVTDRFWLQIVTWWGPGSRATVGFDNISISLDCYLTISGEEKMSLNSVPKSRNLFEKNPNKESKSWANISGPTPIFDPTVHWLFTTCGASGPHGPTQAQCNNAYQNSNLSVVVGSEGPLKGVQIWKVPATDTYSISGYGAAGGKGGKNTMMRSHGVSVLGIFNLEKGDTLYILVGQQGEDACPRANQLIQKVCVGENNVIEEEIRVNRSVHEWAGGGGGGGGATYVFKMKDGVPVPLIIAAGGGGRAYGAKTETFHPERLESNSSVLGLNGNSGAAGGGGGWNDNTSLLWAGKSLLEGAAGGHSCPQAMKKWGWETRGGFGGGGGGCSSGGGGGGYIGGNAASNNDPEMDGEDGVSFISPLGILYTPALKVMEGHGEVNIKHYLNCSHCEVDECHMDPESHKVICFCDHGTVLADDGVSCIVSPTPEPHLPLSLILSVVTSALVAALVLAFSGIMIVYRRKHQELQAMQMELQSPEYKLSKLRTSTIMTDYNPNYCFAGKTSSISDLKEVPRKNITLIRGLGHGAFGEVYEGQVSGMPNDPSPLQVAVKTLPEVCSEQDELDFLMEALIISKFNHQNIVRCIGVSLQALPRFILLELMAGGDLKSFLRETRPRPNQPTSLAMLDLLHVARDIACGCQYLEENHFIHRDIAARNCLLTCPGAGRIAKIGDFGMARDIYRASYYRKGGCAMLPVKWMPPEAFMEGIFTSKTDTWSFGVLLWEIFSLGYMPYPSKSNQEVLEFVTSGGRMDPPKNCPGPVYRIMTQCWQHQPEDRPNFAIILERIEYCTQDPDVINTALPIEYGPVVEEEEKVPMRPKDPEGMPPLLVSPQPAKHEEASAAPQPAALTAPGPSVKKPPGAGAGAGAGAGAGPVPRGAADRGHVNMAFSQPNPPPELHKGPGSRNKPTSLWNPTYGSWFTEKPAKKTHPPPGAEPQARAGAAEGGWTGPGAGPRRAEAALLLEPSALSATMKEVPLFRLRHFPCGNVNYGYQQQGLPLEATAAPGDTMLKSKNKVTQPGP", "assay": "Inhibition of ALK activation in mouse BV-2 cells by Western blotting analysis", "type": "cell-based", "settings": "dose 4-100 nM"}, "[17]": {"tested_on": "Mus musculus", "assay": "Anti-alzheimer activity against 5 month old APP/PS1 transgenic mouse model assessed as […] at 2 mg/kg, po administered 4 times per week for 4 weeks", "type": "functional, organism-based"}, "[18]": {"tested_on": "Microglia", "assay": "Anti-necroptosis activity in LPS/zVAD stimulated mouse primary microglia overexpressed with ALK assessed as reversal of translucent cytoplasm by TEM analysis", "type": "functional, cell-based"}, "[19]": {"molecular_target": "ALK tyrosine kinase receptor (Homo sapiens, UniProt Q9UM73)", "assay": "Inhibition of recombinant ALK (1060 to end residues) (unknown origin) expressed in Escherichia coli […] using IGF1Rtide as substrate preincubated for 15 mins followed by substrate and ATP addition and measured after 90 mins by ADP-Glo luminescence […] assay"}, "[20]": {"molecular_target": "Cytochrome P450 2B6 (Homo sapiens, UniProt P20813)", "sequence (P20813 whole entry)": "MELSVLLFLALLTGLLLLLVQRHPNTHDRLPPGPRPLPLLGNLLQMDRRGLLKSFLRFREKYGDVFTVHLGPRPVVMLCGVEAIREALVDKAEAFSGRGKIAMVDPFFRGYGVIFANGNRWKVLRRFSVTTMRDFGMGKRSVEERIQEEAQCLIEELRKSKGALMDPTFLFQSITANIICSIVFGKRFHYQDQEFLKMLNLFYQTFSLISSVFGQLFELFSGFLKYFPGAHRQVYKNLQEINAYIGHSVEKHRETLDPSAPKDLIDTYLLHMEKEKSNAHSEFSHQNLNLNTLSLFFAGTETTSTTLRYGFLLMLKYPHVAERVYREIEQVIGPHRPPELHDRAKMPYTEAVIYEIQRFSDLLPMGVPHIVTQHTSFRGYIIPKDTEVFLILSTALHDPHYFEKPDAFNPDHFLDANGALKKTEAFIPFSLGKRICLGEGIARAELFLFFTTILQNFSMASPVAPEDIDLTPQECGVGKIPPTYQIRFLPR", "assay": "Inhibition of CYP2B6 (unknown origin) incubated for 10 mins in presence of NADPH by LC-MS/MS analysis", "type": "ADME"}, "[21]": {"assay": "Unbound plasma protein binding in mouse incubated for 24 hrs by HPLC based equilibrium dialysis method", "type": "ADME, cell-free"}, "[22]": {"assay": "AUC(0 to t) in C57BL/6 mouse brain at 10 mg/kg, po measured upto 24 hrs by LC-MS/MS analysis", "type": "ADME, organism-based"}, "[23]": {"tested_on": "Mus musculus", "assay": "Downregulation of ALK phosphorylation in 3xTg mouse hippocampus at 2 to 10 mg/kg, po by immunohistochemistry analysis", "type": "functional, organism-based", "settings": "dose 2-10 mg/kg"}, "[24]": {"tested_on": "Mus musculus", "assay": "Anti-alzheimer activity against 5 month old APP/PS1 transgenic mouse model assessed as […] at 10 mg/kg, po administered 4 times per week for 4 weeks measured after 2 days", "type": "functional, organism-based", "settings": "time 30.0 day"}, "[25]": {"tested_on": "Microglia", "assay": "Anti-necroptosis activity in LPS/zVAD stimulated mouse primary microglia assessed as reversal of severe membrane disruption by TEM analysis", "type": "functional, cell-based"}, "[26]": {"assay": "Half-life in C57BL/6 mouse plasma at 10 mg/kg, po measured upto 24 hrs by LC-MS/MS analysis", "type": "ADME, organism-based"}, "[27]": {"assay": "Metabolic stability in human liver microsomes assessed as clearance at 1 uM measured upto 60 mins in presence of NADPH and UDPGA by LC-MS/MS analysis", "type": "ADME, Microsome", "settings": "1 h"}, "[28]": {"molecular_target": "hERG (KCNH2) (Homo sapiens, UniProt Q12809)", "sequence (Q12809 whole entry)": "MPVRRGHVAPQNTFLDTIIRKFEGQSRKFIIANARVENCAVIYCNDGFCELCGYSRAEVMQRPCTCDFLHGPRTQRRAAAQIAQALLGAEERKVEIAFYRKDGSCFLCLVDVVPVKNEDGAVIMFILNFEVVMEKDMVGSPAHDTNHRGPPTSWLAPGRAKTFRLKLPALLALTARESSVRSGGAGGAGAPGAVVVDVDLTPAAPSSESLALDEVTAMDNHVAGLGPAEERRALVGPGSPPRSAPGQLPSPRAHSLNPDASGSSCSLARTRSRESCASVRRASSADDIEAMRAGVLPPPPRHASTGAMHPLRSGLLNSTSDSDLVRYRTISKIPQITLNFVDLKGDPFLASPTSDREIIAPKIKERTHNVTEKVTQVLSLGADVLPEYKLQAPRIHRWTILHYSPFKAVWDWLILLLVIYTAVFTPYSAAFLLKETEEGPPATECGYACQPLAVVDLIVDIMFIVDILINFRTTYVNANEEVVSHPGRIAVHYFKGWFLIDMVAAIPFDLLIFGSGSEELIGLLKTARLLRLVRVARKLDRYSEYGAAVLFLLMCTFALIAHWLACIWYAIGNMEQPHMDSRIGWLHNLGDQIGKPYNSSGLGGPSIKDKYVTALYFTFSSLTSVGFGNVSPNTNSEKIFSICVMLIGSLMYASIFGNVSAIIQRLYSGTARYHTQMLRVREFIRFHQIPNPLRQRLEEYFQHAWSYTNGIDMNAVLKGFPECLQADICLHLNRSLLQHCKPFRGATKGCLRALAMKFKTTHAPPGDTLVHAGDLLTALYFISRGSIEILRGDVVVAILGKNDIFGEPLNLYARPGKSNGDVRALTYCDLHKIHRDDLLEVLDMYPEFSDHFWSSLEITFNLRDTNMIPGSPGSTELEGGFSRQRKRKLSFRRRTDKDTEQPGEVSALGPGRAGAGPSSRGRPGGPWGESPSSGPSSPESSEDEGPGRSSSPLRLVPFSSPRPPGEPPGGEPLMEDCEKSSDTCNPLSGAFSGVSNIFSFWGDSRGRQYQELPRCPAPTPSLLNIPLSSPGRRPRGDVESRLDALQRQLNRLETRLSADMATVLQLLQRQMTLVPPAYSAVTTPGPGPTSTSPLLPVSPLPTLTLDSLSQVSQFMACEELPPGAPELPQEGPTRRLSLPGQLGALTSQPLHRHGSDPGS", "assay": "Inhibition of human ERG expressed in CHO cells at 20 uM by Qpatch clamp method relative to control", "type": "toxicity, cell-based", "settings": "CHO cells that express hERG"}, "[29]": {"assay": "Tmax in C57BL/6 mouse plasma at 10 mg/kg, po measured upto 24 hrs by LC-MS/MS analysis", "type": "ADME, organism-based"}, "[30]": {"tested_on": "Mus musculus", "assay": "Anti-alzheimer activity in 8 month old 3xTg mouse model assessed as reversal of transcriptomic changes in Lamc2 at 10 mg/kg, po", "type": "functional, organism-based"}, "[31]": {"assay": "Metabolic stability in human liver microsomes assessed as half-life at 1 uM measured upto 60 mins in presence of NADPH and UDPGA by LC-MS/MS analysis", "type": "ADME, Microsome"}, "[32]": {"tested_on": "Microglia", "assay": "Anti-necroptosis activity in LPS/zVAD stimulated mouse primary microglia overexpressed with ALK assessed as reversal of severe membrane disruption by TEM analysis", "type": "functional, cell-based"}, "[33]": {"tested_on": "Microglia", "assay": "Anti-necroptosis activity in LPS/zVAD stimulated mouse primary microglia assessed as reversal of mitochondrial swelling by TEM analysis", "type": "functional, cell-based"}, "[34]": {"tested_on": "Mus musculus", "assay": "Anti-necroptosis activity in 3xTg mouse hippocampus assessed as reduction in pMLKL activation at 2 to 10 mg/kg, po", "type": "functional, organism-based", "settings": "dose 2-10 mg/kg"}, "[35]": {"assay": "Cmax in C57BL/6 mouse brain at 10 mg/kg, po measured upto 24 hrs by LC-MS/MS analysis", "type": "ADME, organism-based"}}, "note": "pIC50: −log10 of the molar value. Active and inactive are the calls of the source. No cut-off for these calls is given here.", "data": [{"smiles": "Cc1cc(F)cc(Nc2ncc(Nc3ccc(SC(F)(F)F)cc3)cc2C(N)=O)c1", "values": [{"measurement": "Activity", "setting": "[1]", "value": "inactive"}, {"measurement": "Activity", "setting": "[2]", "value": "inactive"}, {"measurement": "Activity", "setting": "[3]", "value": "Active"}, {"measurement": "Activity", "setting": "[4]", "value": "Active"}, {"measurement": "Activity", "setting": "[5]", "value": "Active"}, {"measurement": "AUC(0-t) at 24 h", "setting": "[6]", "value": 10900, "unit": "ng·h/mL"}, {"measurement": "Activity", "setting": "[7]", "value": "Toxic"}, {"measurement": "Activity", "setting": "[8]", "value": "Active"}, {"measurement": "Activity", "setting": "[9]", "value": "inactive"}, {"measurement": "inhibition", "setting": "[10]", "value": "Dose-dependent-effect"}, {"measurement": "pIC50", "setting": "[11]", "value": "< 5.00"}, {"measurement": "half-life", "setting": "[12]", "value": 8.46, "unit": "h"}, {"measurement": "Activity", "setting": "[13]", "value": "Active"}, {"measurement": "Activity", "setting": "[14]", "value": "Active"}, {"measurement": "pIC50", "setting": "[15]", "value": 6.39}, {"measurement": "inhibition", "setting": "[16]", "value": "Dose-dependent-effect"}, {"measurement": "Activity", "setting": "[17]", "value": "Active"}, {"measurement": "Activity", "setting": "[18]", "value": "inactive"}, {"measurement": "pIC50", "setting": "[19]", "value": 6.21}, {"measurement": "pIC50", "setting": "[20]", "value": 5.28}, {"measurement": "Fu", "setting": "[21]", "value": 0.8, "unit": "%"}, {"measurement": "AUC(0-t) at 24 h", "setting": "[22]", "value": 2970, "unit": "ng·h/mL"}, {"measurement": "Activity", "setting": "[23]", "value": "Active; Activity More Potent Than Nec-1"}, {"measurement": "Activity", "setting": "[24]", "value": "Active"}, {"measurement": "Activity", "setting": "[25]", "value": "Active"}, {"measurement": "half-life", "setting": "[26]", "value": 13.3, "unit": "h"}, {"measurement": "CLH", "setting": "[27]", "value": 7, "unit": "µL/min/mg"}, {"measurement": "inhibition at 20 µM", "setting": "[28]", "value": 11.3, "unit": "%"}, {"measurement": "Tmax", "setting": "[29]", "value": 2.93, "unit": "h"}, {"measurement": "Activity", "setting": "[30]", "value": "Active"}, {"measurement": "half-life at 1 µM", "setting": "[31]", "value": 3.22, "unit": "h"}, {"measurement": "Activity", "setting": "[32]", "value": "inactive"}, {"measurement": "Activity", "setting": "[33]", "value": "Active"}, {"measurement": "Activity", "setting": "[34]", "value": "Active"}, {"measurement": "Cmax", "setting": "[35]", "value": 290, "unit": "ng/mL"}]}]}
